Tests used:
[1] = target: Xanthine dehydrogenase/oxidase (Homo sapiens, UniProt P47989); assay: Inhibition of XOD
[2] = system: HepG2; assay: Cytotoxicity against human HepG2 cells by SRB assay; type: functional
[3] = target: T1, Tyrosine-protein phosphatase non-receptor type 1 (Homo sapiens, UniProt P18031); assay: Inhibition of human recombinant PTP1B after 10 mins
T1 sequence (P18031 whole entry): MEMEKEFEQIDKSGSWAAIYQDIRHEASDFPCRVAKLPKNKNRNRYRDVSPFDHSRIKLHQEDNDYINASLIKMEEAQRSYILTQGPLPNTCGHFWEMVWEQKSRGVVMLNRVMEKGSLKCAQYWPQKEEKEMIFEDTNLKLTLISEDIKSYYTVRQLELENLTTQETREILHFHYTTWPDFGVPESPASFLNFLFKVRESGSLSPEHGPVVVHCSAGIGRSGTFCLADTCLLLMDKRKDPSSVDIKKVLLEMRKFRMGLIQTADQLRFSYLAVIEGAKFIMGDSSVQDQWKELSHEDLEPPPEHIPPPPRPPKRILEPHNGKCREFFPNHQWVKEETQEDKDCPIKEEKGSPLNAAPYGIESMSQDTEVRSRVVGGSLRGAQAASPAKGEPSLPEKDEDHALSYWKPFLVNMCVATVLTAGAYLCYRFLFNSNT

Sequence of Xanthine dehydrogenase/oxidase (P47989 whole entry): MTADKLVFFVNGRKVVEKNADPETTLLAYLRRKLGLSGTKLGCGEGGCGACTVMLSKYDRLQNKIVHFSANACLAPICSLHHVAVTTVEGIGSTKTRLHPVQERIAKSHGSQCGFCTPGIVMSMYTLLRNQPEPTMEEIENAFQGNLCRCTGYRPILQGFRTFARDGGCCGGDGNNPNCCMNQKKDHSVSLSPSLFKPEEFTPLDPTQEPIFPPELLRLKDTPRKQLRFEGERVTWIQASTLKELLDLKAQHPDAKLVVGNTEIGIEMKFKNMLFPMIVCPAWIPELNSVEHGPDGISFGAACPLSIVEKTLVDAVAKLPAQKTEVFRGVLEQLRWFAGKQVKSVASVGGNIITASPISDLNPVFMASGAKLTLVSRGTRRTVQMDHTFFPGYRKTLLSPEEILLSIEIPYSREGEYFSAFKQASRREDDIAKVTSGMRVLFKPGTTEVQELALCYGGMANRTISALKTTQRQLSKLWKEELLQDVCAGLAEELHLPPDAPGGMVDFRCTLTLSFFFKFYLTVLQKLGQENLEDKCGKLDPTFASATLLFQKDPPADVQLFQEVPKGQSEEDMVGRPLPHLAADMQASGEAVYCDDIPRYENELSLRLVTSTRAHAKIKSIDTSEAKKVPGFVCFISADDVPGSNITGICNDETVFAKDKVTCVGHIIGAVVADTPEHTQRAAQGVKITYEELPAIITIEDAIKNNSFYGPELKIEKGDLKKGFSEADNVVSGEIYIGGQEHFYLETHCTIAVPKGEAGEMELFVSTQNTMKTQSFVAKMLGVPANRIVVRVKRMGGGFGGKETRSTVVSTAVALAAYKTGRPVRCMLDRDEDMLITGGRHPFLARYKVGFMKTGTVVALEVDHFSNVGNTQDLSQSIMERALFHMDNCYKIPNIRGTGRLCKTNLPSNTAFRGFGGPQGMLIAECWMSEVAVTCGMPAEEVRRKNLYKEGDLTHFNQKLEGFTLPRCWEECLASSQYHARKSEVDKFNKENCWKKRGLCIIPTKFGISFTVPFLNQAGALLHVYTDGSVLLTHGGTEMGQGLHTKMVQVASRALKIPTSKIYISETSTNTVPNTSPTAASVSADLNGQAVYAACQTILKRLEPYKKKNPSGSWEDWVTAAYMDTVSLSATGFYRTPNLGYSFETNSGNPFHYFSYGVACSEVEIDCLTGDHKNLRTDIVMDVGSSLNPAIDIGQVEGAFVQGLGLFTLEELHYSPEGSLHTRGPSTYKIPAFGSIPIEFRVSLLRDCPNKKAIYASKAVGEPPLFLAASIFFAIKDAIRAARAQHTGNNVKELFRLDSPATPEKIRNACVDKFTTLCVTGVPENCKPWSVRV

Compound | IC50 [1] | GI50 [2] | also measured
COc1cc2cc(-c3cc4cc(O)c(O)cc4oc3=O)c(=O)oc2c(OC)c1O [ARTEMINORIN C] | 7.71 µM | – | –
CCOC(=O)/C=C/c1ccc(O)c(O)c1 [ETHYL CAFFEATE] | – | 17.2 µM | –
CC(=O)O[C@H]1C(=O)[C@@]2(C)[C@H]([C@H](OC(=O)c3ccccc3)[C@]3(O)C[C@H](OC(=O)[C@H](O)[C@@H](NC(=O)c4ccccc4)c4ccccc4)C(C)=C1C3(C)C)[C@]1(OC(C)=O)CO[C@@H]1C[C@@H]2O [PACLITAXEL] | – | 0.059 µM | –
O=c1cc(-c2ccc(O)c(O)c2)oc2cc(O)cc(O)c12 [LUTEOLIN] | 11.5 µM | – | –
O=C(O)/C=C/c1ccc(O)c(O)c1 [CAFFEIC ACID] | – | – | IC50 [3]: 3.06 µM
